Reference: patent US10321681B2, “Plant support formulation, vehicle for the delivery and translocation of phytologically beneficial substances and compositions containing same” (NORTH-WEST UNIVERSITY, priority 2006, dated 2019)

System: maize
Assay: Captan with Elementol R seed treatment, dry maize field trial
Assay type: in vivo
Details: versus untreated seeds
Method: A genetically modified cultivar, supplied by a large seed producing company was used. One bag of treated seed was split and one portion of the seeds in the bag was treated with Captan, while another portion was treated with Captan mixed with Elementol R in the following manner. Captan is a broad-spectrum contact fungicide that has been used on corn seed since the 1950s. It is usually dyed pink and leaves a pink dust in the seed bag and planter box. It is very effective against a broad range of soil fungi. The prescribed amount of Captan was mixed directly with the seeds (Captan reference group). For the test group, seeds were mixed with a similar amount of Captan in 2% Elementol R. The seeds of both groups were briefly mixed or stirred with their individual treatment and then left to dry. Seeds were planted in blocks of 3 or 5 rows stretching the length of the maize field with untreated block s on both sides of each of the treatment groups in the North West Province, South Africa. Culturing was done according to general farming practices with no irrigation.
Plants of each of the untreated, the reference Captan group and the Elementol R/Captan group were collected by pulling up every fifth plant in a row. […]
The total plant mass, the root mass and the leaf mass of each plant were determined. […]

**Q.** With `O=C1C2CC=CCC2C(=O)N1SC(Cl)(Cl)Cl` (centres unmarked) [Captan] as the compound, how does the root mass read?
**A.** Its root mass is “only slightly enhanced root mass”.

**Q.** What about the “leaf mass / growth of the plant leaves” value (fifty plants per group) of the same compound?
**A.** Its value is “did not result in any change of growth of the plant leaves”.
